Experimental data: ChEMBL document CHEMBL6153031, “Impact of the hydrophilic-lipophilic balance of free-base and Zn(II) tricationic pyridiniumporphyrins and irradiation wavelength in PDT against the melanoma cell lines” (Eur J Med Chem, 2025); call rule not given here

Columns and labels:
[1] = Cytotoxicity against human HDF cells assessed as reduction in cell viability incubated for 6 hrs followed by irradiation for 30 mins with light at wavelength of 606 nm and measured after 36 to 48 hrs by MTT assay; type: toxicity, cell-based
[2] = Cytotoxicity against human MeWo cells assessed as reduction in cell viability measured after 36 to 48 hrs by MTT assay; type: toxicity, cell-based
[3] = Phototoxicity against human A-375 cells assessed as reduction in cell viability incubated for 6 hrs followed by irradiation for 30 mins with light at wavelength of 606 nm and measured after 36 to 48 hrs by MTT assay; type: functional, cell-based; settings: A-375, light or radiation study
[4] = Cytotoxicity against human A-375 cells assessed as reduction in cell viability measured after 36 to 48 hrs by MTT assay; type: toxicity, cell-based
[5] = Drug uptake in cytoplasmic organelles in human MeWo cells at 5 uM incubated for 6 hrs by DIOC6(3) dye based fluorescence microscopy; type: ADME, cell-based
[6] = Cytotoxicity against human HDF cells assessed as reduction in cell viability measured after 36 to 48 hrs by MTT assay; type: toxicity, cell-based
[7] = Drug uptake in nucleus in human HDF cells at 5 uM incubated for 6 hrs by DIOC6(3) dye based fluorescence microscopy; type: ADME, cell-based
[8] = Phototoxicity against human A-375 cells assessed as reduction in cell viability incubated for 6 hrs followed by irradiation for 30 mins with light at wavelength of 643 nm and measured after 36 to 48 hrs by MTT assay; type: functional, cell-based; settings: A-375, light or radiation study
[9] = Drug uptake in human MeWo cells at 1 uM measured at 4 degC after 6 hrs by fluorescence based analysis; type: ADME, cell-based
[10] = Drug uptake in cytoplasmic organelles in human HDF cells at 5 uM incubated for 6 hrs by DIOC6(3) dye based fluorescence microscopy; type: ADME, cell-based
[11] = Phototoxicity against human MeWo cells assessed as reduction in cell viability incubated for 6 hrs followed by irradiation for 30 mins with light at wavelength of 643 nm and measured after 36 to 48 hrs by MTT assay; type: functional, cell-based; settings: light or radiation study
[12] = Drug uptake in nucleus in human MeWo cells at 5 uM incubated for 6 hrs by DIOC6(3) dye based fluorescence microscopy; type: ADME, cell-based
[13] = Phototoxicity against human MeWo cells assessed as reduction in cell viability incubated for 6 hrs followed by irradiation for 30 mins with light at wavelength of 606 nm and measured after 36 to 48 hrs by MTT assay; type: functional, cell-based; settings: light or radiation study
[14] = Drug uptake in human MeWo cells at 1 uM measured at 37 degC after 6 hrs by fluorescence based analysis; type: ADME, cell-based
[15] = Drug uptake in human HDF cells at 1 uM measured at 4 degC after 6 hrs by fluorescence based analysis; type: ADME, cell-based
[16] = Drug uptake in human HDF cells at 1 uM measured at 37 degC after 6 hrs by fluorescence based analysis; type: ADME, cell-based
[17] = Phototoxicity against human A-375 cells assessed as cell proliferation rate at 1 uM incubated for 6 hrs followed by irradiation for 30 mins with light at wavelength of 643 nm and measured after 36 to 48 hrs by MTT assay; type: functional; settings: A-375, light or radiation study, time 2550-3270 min, read-out: Activity
[18] = Phototoxicity against human A-375 cells assessed as cell proliferation rate at 1 uM incubated for 6 hrs followed by irradiation for 30 mins with light at wavelength of 606 nm and measured after 36 to 48 hrs by MTT assay; type: functional; settings: A-375, light or radiation study, time 2550-3270 min, read-out: Activity
[19] = Cytotoxicity against human HDF cells assessed as reduction in cell viability incubated for 6 hrs followed by irradiation for 30 mins with light at wavelength of 643 nm and measured after 36 to 48 hrs by MTT assay; type: toxicity, cell-based
[20] = Drug uptake in human HDF cells at 1 uM measured per 10^3 cells after 24 hrs by fluorescence based analysis; type: ADME, cell-based
[21] = (§1) Selectivity index, ratio of IC50 for cytotoxicity against human HDF cells incubated for 6 hrs followed by irradiation for 30 mins with light at wavelength of 606 nm and measured after 36 to 48 hrs to IC50 for phototoxicity against human MeWo cells incubated for 6 hrs followed by irradiation for 30 mins with light at wavelength of 606 nm and measured after 36 to 48 hrs; type: toxicity, cell-based; settings: HDF cells versus MeWo cells, read-out: Ratio IC50
[22] = Phototoxicity against human MeWo cells assessed as reduction in cell proliferation at 1 uM incubated for 6 hrs followed by irradiation for 30 mins with light at wavelength of 606 nm and measured after 36 to 48 hrs by MTT assay; type: functional; settings: light or radiation study, time 2550-3270 min
[23] = Phototoxicity against human MeWo cells assessed as cell proliferation rate at 1 uM incubated for 6 hrs followed by irradiation for 30 mins with light at wavelength of 643 nm and measured after 36 to 48 hrs by MTT assay; type: functional; settings: light or radiation study, time 2550-3270 min, read-out: Activity
[24] = Cytotoxicity against human HDF cells assessed as cell proliferation rate at 1 uM incubated for 6 hrs followed by irradiation for 30 mins with light at wavelength of 643 nm and measured after 36 to 48 hrs by MTT assay; type: toxicity, cell-based; settings: time 2550-3270 min, read-out: Activity
[25] = Cytotoxicity against human HDF cells assessed as reduction in cell proliferation at 1 uM incubated for 6 hrs followed by irradiation for 30 mins with light at wavelength of 606 nm and measured after 36 to 48 hrs by MTT assay; type: toxicity, cell-based; settings: time 2550-3270 min
[26] = as §1, with “A-375” for “MeWo”; type: toxicity, cell-based; settings: HDF cells versus A-375 cells, read-out: Ratio IC50
[27] = Cytotoxicity against human HDF cells assessed as cell proliferation rate at 1 uM incubated for 6 hrs followed by irradiation for 30 mins with light at wavelength of 606 nm and measured after 36 to 48 hrs by MTT assay; type: toxicity, cell-based; settings: time 2550-3270 min, read-out: Activity
[28] = Phototoxicity against human MeWo cells assessed as cell proliferation rate at 1 uM incubated for 6 hrs followed by irradiation for 30 mins with light at wavelength of 606 nm and measured after 36 to 48 hrs by MTT assay; type: functional; settings: light or radiation study, time 2550-3270 min, read-out: Activity
[29] = Phototoxicity against human A-375 cells assessed as reduction in cell proliferation at 1 uM incubated for 6 hrs followed by irradiation for 30 mins with light at wavelength of 606 nm and measured after 36 to 48 hrs by MTT assay; type: functional; settings: A-375, light or radiation study, time 2550-3270 min

Row | Compound | IC50 [1] | IC50 [2] | IC50 [3] | IC50 [4] | Drug uptake [5] | IC50 [6] | Drug uptake [7] | IC50 [8] | Drug uptake [9] | Drug uptake [10] | IC50 [11] | Drug uptake [12] | IC50 [13] | Drug uptake [14] | Drug uptake [15] | Drug uptake [16] | IC50 [19] | further results
1 | CCCCCCCCCC(=O)Nc1ccc(-c2c3nc(c(-c4ccc[n+](C)c4)c4ccc([nH]4)c(-c4ccc[n+](C)c4)c4nc(c(-c5ccc[n+](C)c5)c5ccc2[nH]5)C=C4)C=C3)cc1.[Cl-].[Cl-].[Cl-] | 32.4 µM | > 100 µM | 3.94 µM | > 100 µM | Active | > 100 µM | Not_active | 0.91 µM | Active | Active | 7.7 µM | Not_active | 9.77 µM | Active | Active | Active | 7.09 µM | growth at 1 µM [17]: ~30%; growth at 1 µM [18]: > 80%
2 | CCCCCCCCCCCCCCCC(=O)Nc1ccc(-c2c3nc(c(-c4ccc[n+](C)c4)c4ccc([nH]4)c(-c4ccc[n+](C)c4)c4nc(c(-c5ccc[n+](C)c5)c5ccc2[nH]5)C=C4)C=C3)cc1.[Cl-].[Cl-].[Cl-] | 1.48 µM | > 100 µM | 0.38 µM | > 100 µM | – | > 100 µM | – | 0.1 µM | – | – | 0.56 µM | – | 0.79 µM | Active | – | Active | 0.42 µM | Drug uptake [20]: ~ 26 nM
3 | CCCCCCCCCCCCCC(=O)Nc1ccc(-c2c3nc(c(-c4ccc[n+](C)c4)c4ccc([nH]4)c(-c4ccc[n+](C)c4)c4nc(c(-c5ccc[n+](C)c5)c5ccc2[nH]5)C=C4)C=C3)cc1.[Cl-].[Cl-].[Cl-] | 4.6 µM | > 100 µM | 0.31 µM | > 100 µM | Active | > 100 µM | Not_active | 0.09 µM | – | Active | 0.66 µM | Not_active | 1.44 µM | Active | – | Active | 0.78 µM | selectivity ratio [21]: 3.2; inhibition at 1 µM [22]: 50%; growth at 1 µM [23]: 40%; viability at 1 µM [24]: ~30%; inhibition at 1 µM [25]: 10%; selectivity ratio [26]: 14.8; viability at 1 µM [27]: > 80%; growth at 1 µM [28]: 60%; inhibition at 1 µM [29]: 90%
4 | CC(=O)Nc1ccc(-c2c3nc(c(-c4ccc[n+](C)c4)c4ccc([nH]4)c(-c4ccc[n+](C)c4)c4nc(c(-c5ccc[n+](C)c5)c5ccc2[nH]5)C=C4)C=C3)cc1.[Cl-].[Cl-].[Cl-] | > 100 µM | > 100 µM | > 100 µM | > 100 µM | – | > 100 µM | – | > 100 µM | Active | – | > 100 µM | – | > 100 µM | Active | Active | Active | > 100 µM | –
